Assay results taken from PubChem BioAssay AID2060342 (Molecular Pharmacology Branch, DTP, NCI, 2025).

System: 171881-019-R-J1-PDC multicell spheroid viability
Experiment: Anticancer human tumor 171881-019-R-J1-PDC patient-derived invasive breast carcinoma cell line growth inhibition [IpAb]
Settings: for IC50: curve of first compound; for viability, T/C: stronger effect = lower value
In short: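 Multi-cell spheroids of 60% tumour cells, 25% HUVEC and 15% MSC in ultra-low-attachment U-bottom wells, treated with agents combined with ipatasertib or abemaciclib. Half-log ranges top out near clinical Cmax, or 10 microM when Cmax is unknown.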

[1] = second compound 0.01 µM, first compound 0.0316 µM
[2] = second compound 0.01 µM, first compound 0.1 µM
[3] = second compound 0.01 µM, first compound 0.316 µM
[4] = second compound 0.01 µM, first compound 1 µM
[5] = second compound 0.01 µM, first compound 3.16 µM
[6] = second compound 0.01 µM, first compound 10 µM
[7] = second compound 0.0316 µM, first compound 0.0316 µM
[8] = second compound 0.0316 µM, first compound 0.1 µM
[9] = second compound 0.0316 µM, first compound 0.316 µM
[10] = second compound 0.0316 µM, first compound 1 µM
[11] = second compound 0.0316 µM, first compound 3.16 µM
[12] = second compound 0.0316 µM, first compound 10 µM
[13] = second compound 0.1 µM, first compound 0.0316 µM
[14] = second compound 0.1 µM, first compound 0.1 µM
[15] = second compound 0.1 µM, first compound 0.316 µM
[16] = second compound 0.1 µM, first compound 1 µM
[17] = second compound 0.1 µM, first compound 3.16 µM
[18] = second compound 0.1 µM, first compound 10 µM
[19] = second compound 0.316 µM, first compound 0.0316 µM
[20] = second compound 0.316 µM, first compound 0.1 µM
[21] = second compound 0.316 µM, first compound 0.316 µM
[22] = second compound 0.316 µM, first compound 1 µM
[23] = second compound 0.316 µM, first compound 3.16 µM
[24] = second compound 0.316 µM, first compound 10 µM
[25] = second compound 1 µM, first compound 0.0316 µM
[26] = second compound 1 µM, first compound 0.1 µM
[27] = second compound 1 µM, first compound 0.316 µM
[28] = second compound 1 µM, first compound 1 µM
[29] = second compound 1 µM, first compound 3.16 µM
[30] = second compound 1 µM, first compound 10 µM
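Note: spheroids exposed to the agents for seven days before readout.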

Structure (SMILES) | IC50 (second compound 0.01 µM) [µM] | IC50 (second compound 0.0316 µM) [µM] | IC50 (second compound 0.1 µM) [µM] | IC50 (second compound 0.316 µM) [µM] | IC50 (second compound 1 µM) [µM] | viability, T/C [1] [%] | viability, T/C [2] [%] | viability, T/C [3] [%] | viability, T/C [4] [%] | viability, T/C [5] [%] | viability, T/C [6] [%] | viability, T/C [7] [%] | viability, T/C [8] [%] | viability, T/C [9] [%] | viability, T/C [13] [%] | viability, T/C [14] [%] | viability, T/C [19] [%] | viability, T/C [20] [%] | viability, T/C [25] [%] | viability, T/C [26] [%] | further results
C=CCn1c(=O)c2cnc(Nc3ccc(N4CCN(C)CC4)cc3)nc2n1-c1cccc(C(C)(C)O)n1 + CCN1CCN(Cc2ccc(Nc3ncc(F)c(-c4cc(F)c5nc(C)n(C(C)C)c5c4)n3)nc2)CC1 | 0.864 | 1 | 1.66 | > 10 | > 10 | 88.8 | 93.3 | 109 | 43.2 | 30.3 | 30.3 | 116 | 97.3 | 119 | 110 | 105 | 131 | 137 | 150 | 150 | viability, T/C [10]: 50%; viability, T/C [11]: 35%; viability, T/C [12]: 32%; viability, T/C [15]: 126%; viability, T/C [16]: 57.9%; viability, T/C [17]: 42.7%; viability, T/C [18]: 37.2%; viability, T/C [21]: 134%; viability, T/C [22]: 83.1%; viability, T/C [23]: 57.1%; viability, T/C [24]: 47.7%; viability, T/C [27]: 149%; viability, T/C [28]: 98.8%; viability, T/C [29]: 78.7%; viability, T/C [30]: 69.8%
CC(C)n1nc(-c2ccc3oc(N)nc3c2)c2c(N)ncnc21 + CCN1CCN(Cc2ccc(Nc3ncc(F)c(-c4cc(F)c5nc(C)n(C(C)C)c5c4)n3)nc2)CC1 | 0.00563 | 0.00598 | 0.0056 | 0.00625 | 0.00954 | 4.34 | 2.21 | – | – | – | – | 5.1 | 2.53 | – | 5.52 | 2.76 | 9.75 | 3.47 | 21.4 | 10.4 | viability, T/C (second compound 0.01 µM, first compound 0.000316 µM): 99%; viability, T/C (second compound 0.01 µM, first compound 0.001 µM): 102%; viability, T/C (second compound 0.01 µM, first compound 0.00316 µM): 73.9%; viability, T/C (second compound 0.01 µM, first compound 0.01 µM): 25.7%; viability, T/C (second compound 0.0316 µM, first compound 0.000316 µM): 97.9%; viability, T/C (second compound 0.0316 µM, first compound 0.001 µM): 112%; viability, T/C (second compound 0.0316 µM, first compound 0.00316 µM): 80.5%; viability, T/C (second compound 0.0316 µM, first compound 0.01 µM): 24.8%; viability, T/C (second compound 0.1 µM, first compound 0.000316 µM): 114%; viability, T/C (second compound 0.1 µM, first compound 0.001 µM): 103%; viability, T/C (second compound 0.1 µM, first compound 0.00316 µM): 75.8%; viability, T/C (second compound 0.1 µM, first compound 0.01 µM): 24.3%; viability, T/C (second compound 0.316 µM, first compound 0.000316 µM): 131%; viability, T/C (second compound 0.316 µM, first compound 0.001 µM): 106%; viability, T/C (second compound 0.316 µM, first compound 0.00316 µM): 81.4%; viability, T/C (second compound 0.316 µM, first compound 0.01 µM): 28.5%; viability, T/C (second compound 1 µM, first compound 0.000316 µM): 140%; viability, T/C (second compound 1 µM, first compound 0.001 µM): 125%; viability, T/C (second compound 1 µM, first compound 0.00316 µM): 89.8%; viability, T/C (second compound 1 µM, first compound 0.01 µM): 48.6%
CC1(C)CCC(CN2CCN(c3ccc(C(=O)NS(=O)(=O)c4ccc(NCC5CCOCC5)c([N+](=O)[O-])c4)c(Oc4cnc5[nH]ccc5c4)c3)CC2)=C(c2ccc(Cl)cc2)C1 + CCN1CCN(Cc2ccc(Nc3ncc(F)c(-c4cc(F)c5nc(C)n(C(C)C)c5c4)n3)nc2)CC1 | 5.42 | 6.19 | 5.54 | 5.97 | 6.55 | 84.5 | 79 | 76.6 | 72.4 | 83.4 | 16.6 | 89.7 | 86.7 | 86.8 | 109 | 105 | 120 | 117 | 138 | 139 | viability, T/C [10]: 70.4%; viability, T/C [11]: 89.3%; viability, T/C [12]: 25.3%; viability, T/C [15]: 98.9%; viability, T/C [16]: 89%; viability, T/C [17]: 79%; viability, T/C [18]: 22.9%; viability, T/C [21]: 109%; viability, T/C [22]: 99.7%; viability, T/C [23]: 89.2%; viability, T/C [24]: 21.1%; viability, T/C [27]: 136%; viability, T/C [28]: 128%; viability, T/C [29]: 104%; viability, T/C [30]: 18.4%
CCCS(=O)(=O)Nc1ccc(F)c(C(=O)c2c[nH]c3ncc(-c4ccc(Cl)cc4)cc23)c1F + CCN1CCN(Cc2ccc(Nc3ncc(F)c(-c4cc(F)c5nc(C)n(C(C)C)c5c4)n3)nc2)CC1 | > 10 | > 10 | > 10 | > 10 | > 10 | 103 | 80.8 | 98.6 | 87 | 82.9 | 83.9 | 96.1 | 88.5 | 90.9 | 113 | 94.9 | 123 | 129 | 143 | 143 | viability, T/C [10]: 91.6%; viability, T/C [11]: 85.4%; viability, T/C [12]: 92.3%; viability, T/C [15]: 107%; viability, T/C [16]: 98.4%; viability, T/C [17]: 95.5%; viability, T/C [18]: 94.1%; viability, T/C [21]: 112%; viability, T/C [22]: 113%; viability, T/C [23]: 106%; viability, T/C [24]: 99.2%; viability, T/C [27]: 141%; viability, T/C [28]: 137%; viability, T/C [29]: 130%; viability, T/C [30]: 119%
